Consider five compounds from US12077503B2, “Substituted cyclic amides and their use as herbicides” (FMC CORPORATION, priority 2015, dated 2024).

Common to all, as to assay type: in vivo
Assay [1] deals with ryegrass, Italian (Italian ryegrass, Lolium multiflorum). The assay is described as follows: Test E preemergence. The note with it: scale 0 to 100. In outline:
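Seeds sown in silt loam treated preemergence, or plants 2 to 18 cm tall in peat-based potting medium treated postemergence, with test chemical in a non-phytotoxic solvent mixture containing surfactant. Kept in greenhouse 14 to 21 d, then visually rated against controls on a 0–100 scale (0 no effect, 100 complete control).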

Assay [2] deals with barnyardgrass (Echinochloa crus-galli). The assay is described as follows: Test G Post-Emergence Protocol. The conditions noted are these: Echinochloa crus-galli, post-emergence, 312 h; for pest or weed control at 15.625 g/ha: 15.625 g ai/ha, evaluated after 13 days (100=total damage to plant; 0=no damage to plant), read-out: Barnyardgrass damage rating; for pest or weed control at 62.5 g/ha: 62.5 g ai/ha, read-out: Barnyardgrass damage rating (100=total damage to plant; 0=no damage to plant); for pest or weed control at 62.5 g/ha / pest or weed control at 250 g/ha: evaluated after 13 days; for pest or weed control at 250 g/ha: 250 g ai/ha, read-out: damage to plant, Barnyardgrass (100=total damage to plant; 0=no damage to plant). How it is done:
(§1) Seeds of corn (Zea mays), giant foxtail (Setaria faberi), barnyardgrass (Echinochloa crus-galli), ivy-leaved morning glory (Ipomoea hederacea), redroot pigweed (Amaranthus retroflexus) and velvetleaf (Abutilon theophrasti) were sown in standard soil in pots. After cultivation for 8 days under controlled conditions in a glasshouse (at 24/16° C., day/night; 14 hours light; 65% humidity), the plants were sprayed with an aqueous spray solution derived from the formulation of the technical active ingredient in acetone/water (50:50) solution containing 0.5% Tween 20 (polyoxyethylene sorbitan monolaurate, CAS RN 9005-64-5) to give a final dose of 15.625, 62.5 or 250 g/ha of test compound.
(§2) The test plants were then grown on under controlled conditions in a glasshouse (at 24/16° C., day/night; 14 hours light; 65% humidity) and watered twice daily. After 13 days the test was evaluated (100=total damage to plant; 0=no damage to plant). A dash (-) means no test result.

In assay [3] the test system is corn (Zea mays). The assay is described as follows: Test G Post-Emergence Protocol. The note with it: Zea mays, post-emergence, 312 h; for plant injury at 15.625 g/ha: 15.625 g ai/ha, evaluated after 13 days (100=total damage to plant; 0=no damage to plant), read-out: Corn damage rating; for plant injury at 62.5 g/ha: 62.5 g ai/ha, read-out: Corn damage rating (100=total damage to plant; 0=no damage to plant); for plant injury at 62.5 g/ha / plant injury at 250 g/ha: evaluated after 13 days; for plant injury at 250 g/ha: 250 g ai/ha, read-out: damage to plant, Corn (100=total damage to plant; 0=no damage to plant). How it is done:
as §1, §2

Assay [4] deals with redroot pigweed (Amaranthus retroflexus). The assay is described as follows: Test G Post-Emergence Protocol. The conditions noted are these: Amaranthus retroflexus, post-emergence, 312 h; for pest or weed control at 15.625 g/ha: 15.625 g ai/ha, evaluated after 13 days (100=total damage to plant; 0=no damage to plant), read-out: Pigweed, Redroot damage rating; for pest or weed control at 62.5 g/ha: 62.5 g ai/ha, read-out: Pigweed, Redroot damage rating (100=total damage to plant; 0=no damage to plant); for pest or weed control at 62.5 g/ha / pest or weed control at 250 g/ha: evaluated after 13 days; for pest or weed control at 250 g/ha: 250 g ai/ha, read-out: damage to plant, Pigweed, Redroot (100=total damage to plant; 0=no damage to plant). How it is done:
as §1, §2

Assay [5] concerns ivy-leaved morning glory (Ipomoea hederacea). The assay is described as follows: Test G Post-Emergence Protocol. The conditions noted are these: Ipomoea, post-emergence, 312 h; for pest or weed control at 15.625 g/ha: 15.625 g ai/ha, evaluated after 13 days (100=total damage to plant; 0=no damage to plant), read-out: Morningglory, Ivy-leaved damage rating; for pest or weed control at 62.5 g/ha: 62.5 g ai/ha, read-out: Morningglory, Ivy-leaved damage rating (100=total damage to plant; 0=no damage to plant); for pest or weed control at 62.5 g/ha / pest or weed control at 250 g/ha: evaluated after 13 days; for pest or weed control at 250 g/ha: 250 g ai/ha, read-out: damage to plant, Morningglory, Ivy-leaved (100=total damage to plant; 0=no damage to plant). How it is done:
as §1, §2

Assay [6] concerns giant foxtail (Setaria faberi). The assay is described as follows: Test G Post-Emergence Protocol. The note with it: Setaria faberi, post-emergence, 312 h; for pest or weed control at 15.625 g/ha: 15.625 g ai/ha, evaluated after 13 days (100=total damage to plant; 0=no damage to plant), read-out: Foxtail, Giant damage rating; for pest or weed control at 62.5 g/ha: 62.5 g ai/ha, read-out: Foxtail, Giant damage rating (100=total damage to plant; 0=no damage to plant); for pest or weed control at 62.5 g/ha / pest or weed control at 250 g/ha: evaluated after 13 days; for pest or weed control at 250 g/ha: 250 g ai/ha, read-out: damage to plant, Foxtail, Giant (100=total damage to plant; 0=no damage to plant). How it is done:
as §1, §2

Assay [7] concerns velvetleaf (Abutilon theophrasti). The assay is described as follows: Test G Post-Emergence Protocol. The conditions noted are these: Abutilon theophrasti, post-emergence, 312 h; for pest or weed control at 15.625 g/ha: 15.625 g ai/ha, evaluated after 13 days (100=total damage to plant; 0=no damage to plant), read-out: Velvetleaf damage rating; for pest or weed control at 62.5 g/ha: 62.5 g ai/ha, read-out: Velvetleaf damage rating (100=total damage to plant; 0=no damage to plant); for pest or weed control at 62.5 g/ha / pest or weed control at 250 g/ha: evaluated after 13 days; for pest or weed control at 250 g/ha: 250 g ai/ha, read-out: damage to plant, Velvetleaf (100=total damage to plant; 0=no damage to plant). How it is done:
as §1, §2

In assay [8] the test system is barnyardgrass (Echinochloa crus-galli). The assay is described as follows: Test G Pre-Emergence Protocol. The conditions noted are these: Echinochloa crus-galli, pre-emergence, 312 h, evaluated after 13 days; for pest or weed control at 15.625 g/ha: 15.625 g ai/ha, read-out: Barnyard grass damage rating (100=total damage to plant; 0=no damage to plant); for pest or weed control at 62.5 g/ha: 62.5 g ai/ha, 100=total damage to plant, 0=no damage to plant, read-out: plant damage rating, Barnyardgrass; for pest or weed control at 250 g/ha: 250 g ai/ha, read-out: Barnyardgrass damage rating (100=total damage to plant; 0=no damage to plant). How it is done: as §1, with “one day” for “8 days”
as §2

Assay [9] concerns ivy-leaved morning glory (Ipomoea hederacea). Kind of assay: Test G Pre-Emergence Protocol. The note with it: Ipomoea, pre-emergence, 312 h, evaluated after 13 days; for pest or weed control at 15.625 g/ha: 15.625 g ai/ha, read-out: Morning-glory, Ivy-leaved damage rating (100=total damage to plant; 0=no damage to plant); for pest or weed control at 62.5 g/ha: 62.5 g ai/ha, 100=total damage to plant, 0=no damage to plant, read-out: plant damage rating, Morningglory, Ivy-leaved; for pest or weed control at 250 g/ha: 250 g ai/ha, read-out: Morningglory, Ivy-leaved damage rating (100=total damage to plant; 0=no damage to plant). How it is done:
as §1, with “one day” for “8 days”
as §2

Assay [10] deals with giant foxtail (Setaria faberi). The assay is described as follows: Test G Pre-Emergence Protocol. The conditions noted are these: Setaria faberi, pre-emergence, 312 h, evaluated after 13 days; for pest or weed control at 15.625 g/ha: 15.625 g ai/ha; for pest or weed control at 15.625 g/ha / pest or weed control at 250 g/ha: read-out: Foxtail, Giant damage rating (100=total damage to plant; 0=no damage to plant); for pest or weed control at 62.5 g/ha: 62.5 g ai/ha, 100=total damage to plant, 0=no damage to plant, read-out: plant damage rating, Foxtail, Giant; for pest or weed control at 250 g/ha: 250 g ai/ha. How it is done: as §1, with “one day” for “8 days”
as §2

Molecules are shown by their SMILES.

For the compound `CN1CC(c2cccc(C(F)(F)F)c2)C(C(=O)Nc2ccccc2S(C)(=O)=O)C1=O` (stereo not drawn) [Compound 637], the “Plant response rating: Ryegrass, Italian” value in assay [1] (31 g ai/ha) worked out at 0; in assay [1] (62 g ai/ha) it was 50; in [1] (125 g ai/ha), 35; in [1] (250 g ai/ha), 35.
As to `CN1CC(c2cccc(C(F)(F)F)c2)C(C(=O)Nc2cccc(F)c2F)C1=O` (stereo not drawn) [Compound 636], the “Plant response rating: Ryegrass, Italian” value in assay [1] (31 g ai/ha) was found to be 40; in assay [1] (62 g ai/ha) it was 65; in [1] (125 g ai/ha) it was 95; in assay [1] (250 g ai/ha), 95.
With `CN1CC(c2ccc(C(F)(F)F)cc2)C(C(=O)Nc2ccccc2S(C)(=O)=O)C1=O` (stereo not drawn) [Compound 624], the “Plant response rating: Ryegrass, Italian” value is recorded as 0 in [1] (31 g ai/ha), 0 in [1] (62 g ai/ha), 10 in [1] (125 g ai/ha) and 15 in assay [1] (250 g ai/ha).
On to `Cc1ccc([C@H]2CN(C)C(=O)[C@@H]2C(=O)Nc2cccnc2F)cc1` [Compound 1398], for which the pest or weed control at 15.625 g/ha is 80% in [2]; 0% in [4]; 0% in assay [5]; 80% in [6]; 0% in assay [7]; 80% in assay [8]. Besides, the pest or weed control at 15.625 g/ha in assay [9] worked out at 0%; in assay [10], 90%. The pest or weed control at 62.5 g/ha in assay [2] turned out to be 80%; in assay [4] it was 50%; in [5], 40%; in assay [6], 80%; in assay [7] it was 40%; in assay [8], 90%. The pest or weed control at 62.5 g/ha in assay [9] amounted to 60%; in assay [10], 90%. Further, the pest or weed control at 250 g/ha in [2] stood at 80%; in assay [4], 60%; in [5], 60%; in [6], 80%; in assay [7], 40%; in [8], 90%. Moreover, the pest or weed control at 250 g/ha turned out to be 80% in assay [9] and 90% in assay [10]. The plant injury at 15.625 g/ha in assay [3] is 30%. Moreover, in assay [3], the plant injury at 62.5 g/ha was 70%. Besides, the plant injury at 250 g/ha in assay [3] was found to be 80%.
As for `Cc1ccc([C@H]2CN(C)C(=O)[C@@H]2C(=O)Nc2ccc(F)nc2F)cc1` [Compound 1402], the pest or weed control at 15.625 g/ha worked out at 80% in assay [2]; 10% in assay [4]; 10% in assay [5]; 80% in assay [6]; 0% in assay [7]; 80% in assay [8]. The pest or weed control at 15.625 g/ha was 40% in [9] and 90% in [10]. The pest or weed control at 62.5 g/ha was 80% in assay [2]; 60% in assay [4]; 40% in assay [5]; 80% in assay [6]; 30% in [7]; 90% in [8]. The values for the pest or weed control at 62.5 g/ha in assay [9] and in assay [10] were 70% and 90%, respectively. Further, the pest or weed control at 250 g/ha in assay [2] is 80%; in [4], 60%; in [5], 60%; in [6] it was 80%; in [7], 50%; in [8] it was 90%. For the same compound, the pest or weed control at 250 g/ha in [9] came out at 80%; in assay [10], 90%. For the same compound, the plant injury at 15.625 g/ha in assay [3] was found to be 70%. Moreover, the plant injury at 62.5 g/ha in [3] turned out to be 80%. In addition, the plant injury at 250 g/ha in assay [3] came to 80%.
